Test results published in patent US10329270B2, “Heteroaryl compounds as BTK inhibitors and uses thereof” (Merck Patent GmbH, priority 2013, dated 2019).

Each compound was assayed against T1, full-length human BTK (Homo sapiens, UniProt Q06187) (assay: Assay A: BTK IC50 Enzyme Assay (microfluidic off-chip mobility shift kinase assay)). Details: full-length human BTK, kinKDR peptide substrate, incubated 90 min at 27 C; read-out: Assay A (Time Dependent BTK Enzyme Assay IC50).
T1 construct: 2.5× stocks of full-length human BTK (08-080); purchased CarnaBio USA, Inc., Natick, Mass; 08-080
Format: biochemical
Procedure, shortened: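 Off-chip microfluidic mobility shift assay with full-length human BTK; phosphorylated and unphosphorylated peptide substrate were separated by charge/mass on a LabChip 3000.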

T1 sequence (Q06187 whole entry): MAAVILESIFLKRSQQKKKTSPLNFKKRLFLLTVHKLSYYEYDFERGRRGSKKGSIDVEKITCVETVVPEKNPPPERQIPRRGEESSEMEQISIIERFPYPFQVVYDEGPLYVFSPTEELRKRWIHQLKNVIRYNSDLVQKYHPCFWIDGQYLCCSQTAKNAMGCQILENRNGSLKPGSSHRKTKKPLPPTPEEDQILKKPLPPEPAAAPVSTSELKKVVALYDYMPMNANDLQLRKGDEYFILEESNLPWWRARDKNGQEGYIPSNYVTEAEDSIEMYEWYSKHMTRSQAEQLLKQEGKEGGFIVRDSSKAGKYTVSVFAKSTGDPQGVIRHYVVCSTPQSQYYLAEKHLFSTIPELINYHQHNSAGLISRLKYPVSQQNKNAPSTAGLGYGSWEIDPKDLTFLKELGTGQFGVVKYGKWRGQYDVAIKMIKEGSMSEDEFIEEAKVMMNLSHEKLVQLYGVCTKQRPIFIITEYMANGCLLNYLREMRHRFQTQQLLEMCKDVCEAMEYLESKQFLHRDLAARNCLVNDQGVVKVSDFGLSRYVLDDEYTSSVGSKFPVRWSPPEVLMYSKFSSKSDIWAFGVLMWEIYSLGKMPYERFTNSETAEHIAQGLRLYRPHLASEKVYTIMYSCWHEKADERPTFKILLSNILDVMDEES

Row | IC50 [nM] | Structure (SMILES)
1 | > 5000 | C=CC(=O)NCc1ccc(-c2ccc(C(N)=O)c(Oc3ccc(Oc4ccccc4)cc3)n2)o1 [Compound 161, 6-(5-(acrylamidomethyl)furan-2-yl)-2-(4-phenoxyphenoxy)nicotinamide]
2 | 1000 to 5000 | C=CC(=O)N[C@H]1CCN(c2ccc(C(N)=O)c(Oc3cnn(Cc4ccccc4)c3)n2)C1 [Compound 97]
3 | < 100 | C=CC(=O)N1C[C@@H]2C[C@H]1CN2c1ncc(C(N)=O)c(Oc2ccc(Oc3ccccc3)cc2)n1 [Compound 147, 2-((1S,4S)-5-acryloyl-2,5-diazabicyclo[2.2.1]heptan-2-yl)-4-(4-phenoxyphenoxy)pyrimidine-5-carboxamide]
4 | 100 to 1000 | C=CC(=O)N1CCN(c2ncc(C(N)=O)c(Oc3ccc(Oc4ccccc4)cc3)n2)C(C)(C)C1 [Compound 151]
5 | 100 to 1000 | CC(C)=CC(=O)C1CCN(c2ccc(C(N)=O)c(Oc3ccc(Oc4ccccc4)cc3)n2)C1 (centres unmarked) [Compound 93, 6-[3-(3-Methyl-but-2-enoyl)-pyrrolidin-1-yl]-2-(4-phenoxy-phenoxy)-nicotinamide]
6 | 1000 to 5000 | N#CN1CCCC(Nc2cnc(Oc3ccc(Oc4ccccc4)cc3)c(C(N)=O)c2)C1 (centres unmarked) [Compound 247, 5-[(1-cyanopiperidin-3-yl)amino]-2-(4-phenoxyphenoxy)pyridine-3-carboxamide]
7 | 100 to 1000 | C=CC(=O)N[C@H]1CCN(c2nc(Oc3ccc(Oc4ccccc4)cc3)c(C(N)=O)cc2F)C1 [Compound 2, 6-((S)-3-Acryloylamino-pyrrolidin-1-yl)-5-fluoro-2-(4-phenoxy-phenoxy)-nicotinamide]
8 | 1000 to 5000 | C/C=C/C(=O)N1CCC2(CCN(c3cnc(Oc4ccc(Oc5cccc(F)c5)cc4)c(C(N)=O)c3)C2)C1 (centres unmarked) [Compound 232, (E)-5-(7-(but-2-enoyl)-2,7-diazaspiro[4.4]nonan-2-yl)-2-(4-(3-fluorophenoxy)phenoxy) nicotinamide]
9 | < 100 | C=CC(=O)N1CCC(O)(c2ccc(C(N)=O)c(Oc3ccc(Oc4ccccc4)cc3)n2)C(O)C1 (centres unmarked) [Compound 77, 1′-Acryloyl-3′,4′-dihydroxy-6-(4-phenoxy-phenoxy)-1′,2′,3′,4′,5′,6′-hexahydro-[2,4′]bipyridinyl-5-carboxylic acid amide]
10 | 100 to 1000 | C=CC(=O)N1CC[C@@H](N(C)c2ccc(C(N)=O)c(Oc3ccc(Oc4ccccc4)cc3)n2)C1 [Compound 187, 6-[((R)-1-Acryloyl-pyrrolidin-3-yl)-methyl-amino]-2-(4-phenoxy-phenoxy)-nicotinamide]
11 | 100 to 1000 | C=CC(=O)NC1CCCN(c2cnc(Oc3ccc(Oc4ccccc4)cc3)c(C(N)=O)c2)C1 (centres unmarked) [Compound 198]
12 | 1000 to 5000 | C=CC(=O)N1CCC(c2cc(Oc3ccc(NC(=O)c4ccccc4)cc3)c(C(N)=O)cn2)C1 (centres unmarked) [Compound 184, 6-(1-Acryloylpyrrolidin-3-yl)-4-(4-benzamidophenoxy)nicotinamide]
13 | 100 to 1000 | C=CC(=O)N[C@H]1CCN(c2ccc(C(N)=O)c(Nc3ccc(F)c(C)c3)n2)C1 [Compound 60, 6-((S)-3-Acryloylamino-pyrrolidin-1-yl)-2-(4-fluoro-3-methyl-phenylamino)-nicotinamide]
14 | 100 to 1000 | C=CC(=O)N[C@H]1C[C@H](Nc2ncc(C(N)=O)c(Oc3ccc(Oc4ccccc4)cc3)n2)C1 [Compound 176, 2-(((1r,3r)-3-acrylamidocyclobutyl)amino)-4-(4-phenoxyphenoxy)pyrimidine-5-carboxamide]
15 | > 5000 | C/C=C/C(=O)NC1CCN(c2cnc(Oc3ccc(Oc4cccc(F)c4)cc3)c(C(N)=O)c2)C1 (centres unmarked) [Compound 221, 5-[3-((E)-But-2-enoylamino)-pyrrolidin-1-yl]-2-[4-(3-fluoro-phenoxy)-phenoxy]-nicotinamide]
16 | 1000 to 5000 | C/C=C/C(=O)N1CCCC(Nc2cnc(Oc3ccc(Oc4cccc(F)c4)cc3)c(C(N)=O)c2)C1 (centres unmarked) [Compound 231, (E)-5-((1-(but-2-enoyl)piperidin-3-yl)amino)-2-(4-(3-fluorophenoxy)phenoxy)nicotinamide]
17 | < 100 | C=CC(=O)N[C@H]1CCN(c2ccc(C(N)=O)c(Oc3ccc(Oc4cccc(C(F)(F)F)c4)cc3)n2)C1 [Compound 82, (S)-6-(3-acrylamidopyrrolidin-1-yl)-2-(4-(3-(trifluoromethyl)phenoxy)phenoxy)nicotinamide]
18 | 100 to 1000 | C=CC(=O)N1CCC(CNc2ncc(C(N)=O)c(Oc3ccc(Oc4ccccc4)cc3)n2)CC1 [Compound 209, 2-(((1-acryloylpiperidin-4-yl)methyl)amino)-4-(4-phenoxyphenoxy)pyrimidine-5-carboxamide]
19 | < 100 | C=CC(=O)N1CCC(Nc2cnc(Oc3ccc(Oc4cccc(F)c4)cc3)c(C(N)=O)c2)C1 (centres unmarked) [Compound 253, 5-(1-Acryloyl-pyrrolidin-3-ylamino)-2-[4-(3-fluoro-phenoxy)-phenoxy]-nicotinamide]
20 | > 5000 | N#CN1CCC(Nc2cnc(Oc3ccc(Oc4ccccc4)cc3)c(C(N)=O)c2)CC1 [Compound 246, 5-[(1-cyanopiperidin-4-yl)amino]-2-(4-phenoxyphenoxy)pyridine-3-carboxamide]
21 | 100 to 1000 | C=CC(=O)N[C@H]1CCN(c2nc(Nc3ccc(C(=O)NC(C)(C)C)cc3)c(C(N)=O)cc2F)C1 [Compound 5, 6-((S)-3-Acryloylamino-pyrrolidin-1-yl)-2-(4-tert-butylcarbamoyl-phenylamino)-5-fluoro-nicotinamide]
22 | < 100 | C=CC(=O)N1CCC(c2ccc(C(N)=O)c(Oc3ccc(Oc4ccccc4)cc3)n2)CC1 [Compound 64, 6-(1-acryloylpiperidin-4-yl)-2-(4-phenoxyphenoxy)nicotinamide]
23 | < 100 | C=CC(=O)N1CCC(c2ncc(C(N)=O)c(Oc3ccc(Oc4ccccc4)cc3)n2)CC1 [Compound 148, 2-(1-Acryloyl-piperidin-4-yl)-4-(4-phenoxy-phenoxy)-pyrimidine-5-carboxylic acid amide]

The remaining lines, values behind:

Row | Structure (SMILES) | IC50 [nM]
24 | C=CC(=O)NCc1cccc(-c2cnc(C(N)=O)nc2)c1 [Compound 152] | 1000 to 5000
25 | C=CC(=O)N1CC=C(c2cncc(C(N)=O)c2Nc2ccc(N3C[C@@H](C)O[C@@H](C)C3)nc2)CC1 [Compound 168, 1′-Acryloyl-4-[6-(cis-2,6-dimethyl-morpholin-4-yl)-pyridin-3-ylamino]-1′,2′,3′,6′-tetrahydro-[3,4′]bipyridinyl-5-carboxylic acid amide] | 1000 to 5000
26 | C=CC(=O)N[C@H]1CCN(c2ccc(C(N)=O)c(Nc3cccnc3)n2)C1 [Compound 52, 6-((S)-3-Acryloylamino-pyrrolidin-1-yl)-2-(pyridin-3-ylamino)-nicotinamide] | < 100
27 | C=CC(=O)N1CC=C(c2cncc(C(N)=O)c2Nc2ccc(C(=O)N3CCCCC3)cc2)CC1 [Compound 169, 1′-Acryloyl-4-[4-(piperidine-1-carbonyl)-phenylamino]-1′,2′,3′,6′-tetrahydro-[3,4′]bipyridinyl-5-carboxylic acid amide] | 1000 to 5000
28 | C=CC(=O)N[C@H]1CCN(c2ccc(C(N)=O)c(Nc3cncc(F)c3)n2)C1 [Compound 51, 6-((S)-3-Acryloylamino-pyrrolidin-1-yl)-2-(5-fluoro-pyridin-3-ylamino)-nicotinamide] | < 100
29 | C=CC(=O)N[C@H]1CCN(c2ccc(C(N)=O)c(Nc3ccc(CCN4CCC(F)(F)C4)cc3)n2)C1 [Compound 24, 6-((S)-3-Acryloylamino-pyrrolidin-1-yl)-2-{4-[2-(3,3-difluoro-pyrrolidin-1-yl)-ethyl]-phenylamino}-nicotinamide] | < 100
30 | C=CC(=O)N1C2CCC1CC(c1ccc(C(N)=O)c(Oc3ccc(Oc4ccccc4)cc3)n1)C2 (centres unmarked) [Compound 71, 6-(8-Acryloyl-8-aza-bicyclo[3.2.1]oct-3-yl)-2-(4-phenoxy-phenoxy)-nicotinamide] | < 100
31 | C=CC(=O)N[C@H]1CCN(c2nc(Nc3ccc(CCN4CCCC4)cc3)c(F)cc2C(N)=O)C1 [Compound 4, 2-((S)-3-Acryloylamino-pyrrolidin-1-yl)-5-fluoro-6-[4-(2-pyrrolidin-1-yl-ethyl)-phenylamino]-nicotinamide] | 100 to 1000
32 | C=CC(=O)N1CCn2ncc(-c3cnc(C(N)=O)c(NC(C)=O)c3)c2C1 [Compound 132] | < 100
33 | C=CC(=O)N[C@H]1CCN(c2ncc(C(N)=O)c(N)n2)C1 [Compound 142, 2-((S)-3-Acryloylamino-pyrrolidin-1-yl)-4-amino-pyrimidine-5-carboxylic acid amide] | 100 to 1000
34 | C=CC(=O)N[C@H]1CCN(c2ccc(C(N)=O)c(Nc3ccc(C(=O)N4CCOCC4)cc3)n2)C1 [Compound 35, 6-((S)-3-Acryloylamino-pyrrolidin-1-yl)-2-[4-(morpholine-4-carbonyl)-phenylamino]-nicotinamide] | < 100
35 | C=CC(=O)N[C@H]1CCN(c2ccc(C(N)=O)c(Nc3ccc(N4CCCC4)nc3)n2)C1 [Compound 41, 6-((S)-3-Acryloylamino-pyrrolidin-1-yl)-2-(6-pyrrolidin-1-yl-pyridin-3-ylamino)-nicotinamide] | < 100
36 | C=CC(=O)N1CC=C(c2ccc(C(N)=O)c(Nc3ccc(OC4CCN(C)CC4)cc3)n2)CC1 [Compound 13, 1′-Acryloyl-6-[4-(1-methyl-piperidin-4-yloxy)-phenylamino]-1′,2′,3′,6′-tetrahydro-[2,4′]bipyridinyl-5-carboxylic acid amide] | < 100
37 | C=CC(=O)N[C@H]1CCN(c2ncc(C#N)c(Nc3ccc(C(=O)NC(C)(C)C)cc3)n2)C1 [Compound 178] | < 100
38 | C=CC(=O)N1CCC(c2ccc(C(N)=O)c(Nc3ccc(C(=O)N4CCN(C(=O)CCCCNC(=S)Nc5ccc(C6=C7C(C)=CC(C)=[N+]7[B-](F)(F)n7c(C)cc(C)c76)cc5)CC4)cc3)n2)CC1 [Compound 63, 1′-Acryloyl-6-{4-[4-(5-{3-[4-(4,4-difluoro-1,3,5,7-tetramethyl-3a,4alambda4-diaza-4lambda4-bora-s-indacen-8-yl)-phenyl]-thioureido}-pentanoyl)-piperazine-1-carbonyl]-phenylamino}-1′,2′,3′,4′,5′,6′-hexahydro-[2,4′]bipyridinyl-5-carboxylic acid amide] | < 100
